Results reported in patent US8022206B2 (OSI Pharmaceuticals, LLC, priority 2008, dated 2011).
pIC50: −log10 of the molar value.

Assays:
[1] = target: RON (human) (Homo sapiens, UniProt Q04912); assay: RON (human) AlphaScreen kinase assay, Km of ATP; format: biochemical; conditions: AlphaScreen, Km of ATP; read-out: RON biochemical IC50
Procedure, shortened: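 Detection used PT66 AlphaScreen beads added in Tris pH 7.5/NaCl/EDTA/BSA buffer, read after 1 h incubation. Vehicle-only DMSO wells served as controls.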

[2] = target: MET (human) (Homo sapiens, UniProt P08581); assay: MET (human) AlphaScreen kinase assay, Km of ATP; format: biochemical; conditions: AlphaScreen, Km of ATP; read-out: Met biochemical IC50
Procedure, shortened: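 Human MET at lot-optimised concentration in 50 mM Tris pH 7.4 buffer with 1 mM DTT, compound at 1% DMSO final; enzyme starts the reaction, 60 min at RT.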

MET (human), sequence (P08581 25-1390): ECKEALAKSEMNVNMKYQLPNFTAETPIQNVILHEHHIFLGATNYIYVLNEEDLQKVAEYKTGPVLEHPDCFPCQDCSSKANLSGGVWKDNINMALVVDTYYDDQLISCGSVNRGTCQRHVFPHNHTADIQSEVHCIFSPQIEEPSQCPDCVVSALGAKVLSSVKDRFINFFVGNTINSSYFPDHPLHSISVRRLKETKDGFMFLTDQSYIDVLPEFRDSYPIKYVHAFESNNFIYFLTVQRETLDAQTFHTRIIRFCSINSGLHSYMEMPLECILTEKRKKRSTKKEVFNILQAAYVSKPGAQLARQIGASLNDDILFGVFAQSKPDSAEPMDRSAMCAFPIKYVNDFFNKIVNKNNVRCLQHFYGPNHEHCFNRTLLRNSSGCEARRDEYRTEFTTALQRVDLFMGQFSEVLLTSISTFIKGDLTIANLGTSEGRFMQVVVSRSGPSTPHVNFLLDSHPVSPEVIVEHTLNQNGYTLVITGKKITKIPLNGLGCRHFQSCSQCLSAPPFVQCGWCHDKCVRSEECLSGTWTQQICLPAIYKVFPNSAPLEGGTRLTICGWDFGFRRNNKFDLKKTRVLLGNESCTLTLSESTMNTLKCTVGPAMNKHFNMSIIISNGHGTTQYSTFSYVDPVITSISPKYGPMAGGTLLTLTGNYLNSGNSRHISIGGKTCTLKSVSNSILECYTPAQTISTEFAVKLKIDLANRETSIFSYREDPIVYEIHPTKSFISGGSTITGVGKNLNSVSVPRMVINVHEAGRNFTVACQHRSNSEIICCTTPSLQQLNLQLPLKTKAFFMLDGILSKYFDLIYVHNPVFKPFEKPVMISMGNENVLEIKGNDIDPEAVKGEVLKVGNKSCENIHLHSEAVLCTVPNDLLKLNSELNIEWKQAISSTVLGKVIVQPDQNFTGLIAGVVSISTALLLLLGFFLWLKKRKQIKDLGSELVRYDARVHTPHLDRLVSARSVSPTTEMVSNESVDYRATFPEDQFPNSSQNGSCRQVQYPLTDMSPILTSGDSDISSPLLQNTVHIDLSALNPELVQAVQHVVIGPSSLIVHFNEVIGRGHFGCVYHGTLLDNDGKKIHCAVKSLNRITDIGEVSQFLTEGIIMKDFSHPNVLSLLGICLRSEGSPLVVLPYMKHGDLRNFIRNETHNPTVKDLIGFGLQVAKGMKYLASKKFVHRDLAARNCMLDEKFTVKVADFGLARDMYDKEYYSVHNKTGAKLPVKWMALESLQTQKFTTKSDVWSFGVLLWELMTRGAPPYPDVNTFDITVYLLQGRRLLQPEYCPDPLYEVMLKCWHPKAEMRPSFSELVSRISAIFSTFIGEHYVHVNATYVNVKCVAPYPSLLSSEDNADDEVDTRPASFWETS
RON (human), sequence (Q04912 25-1400): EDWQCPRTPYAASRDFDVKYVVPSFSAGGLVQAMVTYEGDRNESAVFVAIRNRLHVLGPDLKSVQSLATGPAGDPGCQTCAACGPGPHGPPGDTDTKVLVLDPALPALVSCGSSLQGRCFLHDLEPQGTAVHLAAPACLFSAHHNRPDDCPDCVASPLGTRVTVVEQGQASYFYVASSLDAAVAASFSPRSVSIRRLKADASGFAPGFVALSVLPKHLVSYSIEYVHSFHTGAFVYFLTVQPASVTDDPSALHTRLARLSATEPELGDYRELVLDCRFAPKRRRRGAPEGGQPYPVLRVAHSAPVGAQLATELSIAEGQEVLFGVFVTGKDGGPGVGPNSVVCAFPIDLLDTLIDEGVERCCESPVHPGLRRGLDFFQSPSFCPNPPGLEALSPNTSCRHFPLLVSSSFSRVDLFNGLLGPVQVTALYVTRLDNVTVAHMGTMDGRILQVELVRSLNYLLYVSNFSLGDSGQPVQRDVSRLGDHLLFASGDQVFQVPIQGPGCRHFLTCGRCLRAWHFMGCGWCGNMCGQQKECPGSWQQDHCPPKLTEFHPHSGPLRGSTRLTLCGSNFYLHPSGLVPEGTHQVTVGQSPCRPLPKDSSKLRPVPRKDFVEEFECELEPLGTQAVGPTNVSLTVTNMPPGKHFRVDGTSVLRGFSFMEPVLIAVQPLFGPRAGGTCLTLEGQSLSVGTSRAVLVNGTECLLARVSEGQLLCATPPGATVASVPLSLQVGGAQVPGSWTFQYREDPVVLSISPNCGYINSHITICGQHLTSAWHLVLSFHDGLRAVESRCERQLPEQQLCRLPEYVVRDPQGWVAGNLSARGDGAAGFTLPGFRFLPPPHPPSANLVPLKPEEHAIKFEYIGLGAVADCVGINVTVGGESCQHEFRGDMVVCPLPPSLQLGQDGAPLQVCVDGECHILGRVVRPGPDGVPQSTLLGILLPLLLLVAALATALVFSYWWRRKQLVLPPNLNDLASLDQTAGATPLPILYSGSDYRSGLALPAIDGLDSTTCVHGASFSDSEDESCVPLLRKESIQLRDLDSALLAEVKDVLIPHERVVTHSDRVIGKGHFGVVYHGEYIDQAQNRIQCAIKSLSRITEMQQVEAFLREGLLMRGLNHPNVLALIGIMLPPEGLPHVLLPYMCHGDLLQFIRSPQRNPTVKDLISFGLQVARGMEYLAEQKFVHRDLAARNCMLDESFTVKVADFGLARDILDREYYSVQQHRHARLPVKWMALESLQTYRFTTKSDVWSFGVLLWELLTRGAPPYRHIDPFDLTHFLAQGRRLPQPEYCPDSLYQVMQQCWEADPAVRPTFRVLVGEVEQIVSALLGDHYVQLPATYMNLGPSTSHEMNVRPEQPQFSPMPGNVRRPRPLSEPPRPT

Row | pIC50 [1] | pIC50 [2] | Compound
1 | 5.30 to 6.30 | > 6.30 | C[C@@H](Oc1c(N)ncc2c(C3=CCN(C(=O)C(O)C(F)(F)F)CC3)coc12)c1c(Cl)ccc(F)c1Cl (stereo partly drawn) [Example 270, 1-[4-{6-Amino-7-[(1R)-1-(2,6-dichloro-3-fluorophenyl)ethoxy]furo[3,2-c]pyridin-3-yl}-3,6-dihydropyridin-1(2H)-yl]-3,3,3-trifluoro-2-hydroxypropan-1-one]
2 | > 6.30 | > 6.30 | C[C@@H](Oc1c(N)ncc2c(C3=CCN(C(=O)CN(C)C)CC3)coc12)c1c(Cl)ccc(F)c1Cl [Example 9, 1-(4-{6-Amino-7-[(R)-1-(2,6-dichloro-3-fluorophenyl)ethoxy]-furo[3,2-c]pyridin-3-yl}-3,6-dihydro-2H-pyridin-1-yl)-2-dimethylaminoethanone]
3 | > 6.30 | > 6.30 | C[C@@H](Oc1c(N)ncc2c(C3=CCN(C(=O)[C@@H]4CCCCN4)CC3)coc12)c1c(Cl)ccc(F)c1Cl [Example 238, (4-{6-Amino-7-[(R)-1-(2,6-dichloro-3-fluorophenyl)ethoxy]-furo[3,2-c]pyridin-3-yl}-3,6-dihydro-2H-pyridin-1-yl)-(S)-piperidin-2-ylmethanone]
4 | 5.30 to 6.30 | 5.30 to 6.30 | C[C@@H](Oc1c(N)ncc2c(-c3cccc(CO)c3)coc12)c1c(Cl)ccc(F)c1Cl [Example 57, (3-{6-Amino-7-[(R)-1-(2,6-dichloro-3-fluorophenyl)ethoxy]-furo[3,2-c]pyridin-3-yl}phenyl)methanol]
5 | 5.30 to 6.30 | 5.30 to 6.30 | CC(Oc1c(N)ncc2c(-c3cnn(C4CCNCC4)c3)coc12)c1cccc(OC(F)(F)F)c1 (centres unmarked) [Example 352, 3-(1-Piperidin-4-yl-1H-pyrazol-4-yl)-7-[1-(3-trifluoromethoxy-phenyl)ethoxy]furo[3,2-c]pyridin-6-ylamine]
6 | > 6.30 | > 6.30 | C[C@@H](Oc1c(N)ncc2c(C3=CCN(C(=O)[C@H]4CCCN4)CC3)coc12)c1c(Cl)ccc(F)c1Cl [Example 242, (4-{6-Amino-7-[(R)-1-(2,6-dichloro-3-fluorophenyl)ethoxy]-furo[3,2-c]pyridin-3-yl}-3,6-dihydro-2H-pyridin-1-yl)-(R)-pyrrolidin-2-ylmethanone]
7 | 5.30 to 6.30 | 5.30 to 6.30 | C[C@@H](Oc1c(N)ncc2c(-c3cccc(C(=O)O)c3)coc12)c1c(Cl)ccc(F)c1Cl [Example 80, 3-{6-Amino-7-[(R)-1-(2,6-dichloro-3-fluorophenyl)ethoxy]-furo[3,2-c]pyridin-3-yl}benzoic acid]
8 | 5.30 to 6.30 | 5.30 to 6.30 | CC(Oc1c(N)ncc2c(-c3cnn(C4CCNCC4)c3)coc12)c1cccnc1 (centres unmarked) [Example 398, 3-(1-Piperidin-4-yl-1H-pyrazol-4-yl)-7-(1-pyridin-3-ylethoxy)furo[3,2-c]pyridin-6-ylamine]
9 | 5.30 to 6.30 | 5.30 to 6.30 | Nc1ncc2c(-c3cnn(C4CCNCC4)c3)coc2c1OC1CCCc2cccc(Cl)c21 (centres unmarked) [Example 389, 7-(8-Chloro-1,2,3,4-tetrahydronaphthalen-1-yloxy)-3-(1-piperidin-4-yl-1H-pyrazol-4-yl)furo[3,2-c]pyridin-6-ylamine]
10 | 5.30 to 6.30 | 5.30 to 6.30 | CC(Oc1c(N)ncc2c(-c3cnn(C4CCNCC4)c3)coc12)c1cc(F)cc(-c2ccccc2)c1 (centres unmarked) [Example 449, 7-[1-(5-Fluorobiphenyl-3-yl)ethoxy]-3-(1-piperidin-4-yl-1H-pyrazol-4-yl)furo[3,2-c]pyridin-6-ylamine]
11 | 5.30 to 6.30 | 5.30 to 6.30 | C[C@@H](Oc1c(N)ncc2c(-c3ccc(C(=O)N4CCN(CC(=O)N(C)C)CC4)cc3)coc12)c1c(Cl)ccc(F)c1Cl [Example 300, 2-[4-(4-{6-Amino-7-[(R)-1-(2,6-dichloro-3-fluorophenyl)ethoxy]furo[3,2-c]pyridin-3-yl}benzoyl)piperazin-1-yl]-N,N-dimethylacetamide]
12 | > 6.30 | > 6.30 | C[C@@H](Oc1c(N)ncc2c(C3=CCN(C(=O)[C@@H]4CCCN4C)CC3)coc12)c1c(Cl)ccc(F)c1Cl [Example 18, (4-{6-Amino-7-[(R)-1-(2,6-dichloro-3-fluorophenyl)-ethoxy]-furo[3,2-c]pyridin-3-yl}-3,6-dihydro-2H-pyridin-1-yl)-((S)-1-methylpyrrolidin-2-yl)-methanone]
13 | 5.30 to 6.30 | > 6.30 | C[C@@H](Oc1c(N)ncc2c(-c3cnn(C4CCNCC4)c3)coc12)c1nnc2ccc(-c3ccccc3)nn12 [Example 476, 7-[(1R)-1-(6-phenyl[1,2,4]triazolo[4,3-b]pyridazin-3-yl)ethoxy]-3-[1-(piperidin-4-yl)-1H-pyrazol-4-yl]furo[3,2-c]pyridin-6-amine]
14 | 5.30 to 6.30 | 5.30 to 6.30 | CC(C)[C@@H](O)C(=O)N1CC=C(c2coc3c(O[C@H](C)c4c(Cl)ccc(F)c4Cl)c(N)ncc23)CC1 [Example 268, (2R)-1-[4-{6-Amino-7-[(1R)-1-(2,6-dichloro-3-fluorophenyl)ethoxy]furo[3,2-c]pyridin-3-yl}-3,6-dihydropyridin-1(2H)-yl]-2-hydroxy-3-methylbutan-1-one]
15 | 5.30 to 6.30 | 5.30 to 6.30 | CC(Oc1c(N)ncc2c(-c3cnn(C4CCNCC4)c3)coc12)c1cc(F)cc(F)c1 (centres unmarked) [Example 384, 7-[1-(3,5-Difluorophenyl)ethoxy]-3-(1-piperidin-4-yl-1H-pyrazol-4-yl)furo[3,2-c]pyridin-6-ylamine]
16 | 5.30 to 6.30 | 5.30 to 6.30 | CC(Cc1c(Cl)cccc1Cl)Oc1c(N)ncc2c(-c3cnn(C4CCNCC4)c3)coc12 (centres unmarked) [Example 417, 7-[2-(2,6-Dichlorophenyl)-1-methylethoxy]-3-(1-piperidin-4-yl-1H-pyrazol-4-yl)furo[3,2-c]pyridin-6-ylamine]
17 | 5.30 to 6.30 | 5.30 to 6.30 | C[C@@H](Oc1c(N)ncc2c(-c3cccc(C(=O)N(C)C)c3)coc12)c1c(Cl)ccc(F)c1Cl [Example 73, 3-{6-Amino-7-[(R)-1-(2,6-dichloro-3-fluorophenyl)ethoxy]-furo[3,2-c]pyridin-3-yl}-N,N-dimethylbenzamide]
18 | 5.30 to 6.30 | 5.30 to 6.30 | C[C@@H](Oc1c(N)ncc2c(-c3cccn3C)coc12)c1c(Cl)ccc(F)c1Cl [Example 121, 7-[(R)-1-(2,6-Dichloro-3-fluorophenyl)ethoxy]-3-(1-methyl-1H-pyrrol-2-yl)furo[3,2-c]pyridin-6-ylamine]
19 | 5.30 to 6.30 | 5.30 to 6.30 | Cc1cccc(C)c1C(C)Oc1c(N)ncc2c(-c3cnn(C4CCNCC4)c3)coc12 (centres unmarked) [Example 402, 7-[1-(2,6-Dimethylphenyl)ethoxy]-3-(1-piperidin-4-yl-1H-pyrazol-4-yl)furo[3,2-c]pyridin-6-ylamine]
20 | 5.30 to 6.30 | 5.30 to 6.30 | CC(Cc1c(F)cccc1Cl)Oc1c(N)ncc2c(-c3cnn(C4CCNCC4)c3)coc12 (centres unmarked) [Example 419, 7-[2-(2-Chloro-6-fluorophenyl)-1-methylethoxy]-3-(1-piperidin-4-yl-1H-pyrazol-4-yl)furo[3,2-c]pyridin-6-ylamine]
21 | 5.30 to 6.30 | 5.30 to 6.30 | N#CCc1ccccc1COc1c(N)ncc2c(-c3cnn(C4CCNCC4)c3)coc12 [Example 433, {2-[6-Amino-3-(1-piperidin-4-yl-1H-pyrazol-4-yl)furo[3,2-c]pyridin-7-yloxymethyl]phenyl}acetonitrile]
22 | 5.30 to 6.30 | > 6.30 | C[C@@H](Oc1c(N)ncc2c(-c3csc(C(=O)NC(C)(C)C)c3)coc12)c1c(Cl)ccc(F)c1Cl [Example 315, 4-{6-Amino-7-[(R)-1-(2,6-dichloro-3-fluorophenyl)ethoxy]-furo[3,2-c]pyridin-3-yl}thiophene-2-carboxylic acid tert-butylamide]
23 | > 6.30 | > 6.30 | C[C@@H](Oc1c(N)ncc2c(-c3ccc(N4CCNCC4)nc3)coc12)c1c(Cl)ccc(F)c1Cl [Example 130, 7-[(R)-(2,6-Dichloro-3-fluorophenyl)ethoxy]-3-(6-piperazin-1-yl-pyridin-3-yl)furo[3,2-c]pyridin-6-ylamine]
24 | 5.30 to 6.30 | 5.30 to 6.30 | C[C@@H](Oc1c(N)ncc2c(C3=CCN(C(=O)c4cnn[nH]4)CC3)coc12)c1c(Cl)ccc(F)c1Cl [Example 230, (4-{6-Amino-7-[(R)-1-(2,6-dichloro-3-fluorophenyl)ethoxy]-furo[3,2-c]pyridin-3-yl}-3,6-dihydro-2H-pyridin-1-yl)-(3H-[1,2,3]triazol-4-yl)-methanone]
25 | 5.30 to 6.30 | > 6.30 | C[C@@H](Oc1c(N)ncc2c(-c3ccc(NS(C)(=O)=O)cc3)coc12)c1c(Cl)ccc(F)c1Cl [Example 76, N-(4-{6-Amino-7-[(R)-1-(2,6-dichloro-3-fluorophenyl)ethoxy]-furo[3,2-c]pyridin-3-yl}phenyl)methanesulfonamide]
26 | > 6.30 | > 6.30 | CC(Cc1ccccc1)Oc1c(N)ncc2c(-c3cnn(C4CCNCC4)c3)coc12 (centres unmarked) [Example 405, 7-(1-Methyl-2-phenylethoxy)-3-(1-piperidin-4-yl-1H-pyrazol-4-yl)furo[3,2-c]pyridin-6-ylamine]
27 | 5.30 to 6.30 | > 6.30 | CCC(=O)N1CC=C(c2coc3c(O[C@H](C)c4c(Cl)ccc(F)c4Cl)c(N)ncc23)CC1 [Example 14, 1-(4-{6-Amino-7-[(R)-1-(2,6-dichloro-3-fluorophenyl)-ethoxy]-furo[3,2-c]pyridin-3-yl}-3,6-dihydro-2H-pyridin-1-yl)-propan-1-one]

Row | Compound | pIC50 [1] | pIC50 [2]
28 | CNC(=O)CN1CC=C(c2coc3c(O[C@H](C)c4c(Cl)ccc(F)c4Cl)c(N)ncc23)CC1 [Example 201, 2-(4-{6-Amino-7-[(R)-1-(2,6-dichloro-3-fluorophenyl)ethoxy]-furo[3,2-c]pyridin-3-yl}-3,6-dihydro-2H-pyridin-1-yl)-N-methylacetamide] | 5.30 to 6.30 | > 6.30
